The assay deals with T1, Cm-AGA (Catenovulum maritimum, UniProt A0A0J8H064).
T1 construct: gene XM47_01860
T1 sequence (A0A0J8H064 27-1466): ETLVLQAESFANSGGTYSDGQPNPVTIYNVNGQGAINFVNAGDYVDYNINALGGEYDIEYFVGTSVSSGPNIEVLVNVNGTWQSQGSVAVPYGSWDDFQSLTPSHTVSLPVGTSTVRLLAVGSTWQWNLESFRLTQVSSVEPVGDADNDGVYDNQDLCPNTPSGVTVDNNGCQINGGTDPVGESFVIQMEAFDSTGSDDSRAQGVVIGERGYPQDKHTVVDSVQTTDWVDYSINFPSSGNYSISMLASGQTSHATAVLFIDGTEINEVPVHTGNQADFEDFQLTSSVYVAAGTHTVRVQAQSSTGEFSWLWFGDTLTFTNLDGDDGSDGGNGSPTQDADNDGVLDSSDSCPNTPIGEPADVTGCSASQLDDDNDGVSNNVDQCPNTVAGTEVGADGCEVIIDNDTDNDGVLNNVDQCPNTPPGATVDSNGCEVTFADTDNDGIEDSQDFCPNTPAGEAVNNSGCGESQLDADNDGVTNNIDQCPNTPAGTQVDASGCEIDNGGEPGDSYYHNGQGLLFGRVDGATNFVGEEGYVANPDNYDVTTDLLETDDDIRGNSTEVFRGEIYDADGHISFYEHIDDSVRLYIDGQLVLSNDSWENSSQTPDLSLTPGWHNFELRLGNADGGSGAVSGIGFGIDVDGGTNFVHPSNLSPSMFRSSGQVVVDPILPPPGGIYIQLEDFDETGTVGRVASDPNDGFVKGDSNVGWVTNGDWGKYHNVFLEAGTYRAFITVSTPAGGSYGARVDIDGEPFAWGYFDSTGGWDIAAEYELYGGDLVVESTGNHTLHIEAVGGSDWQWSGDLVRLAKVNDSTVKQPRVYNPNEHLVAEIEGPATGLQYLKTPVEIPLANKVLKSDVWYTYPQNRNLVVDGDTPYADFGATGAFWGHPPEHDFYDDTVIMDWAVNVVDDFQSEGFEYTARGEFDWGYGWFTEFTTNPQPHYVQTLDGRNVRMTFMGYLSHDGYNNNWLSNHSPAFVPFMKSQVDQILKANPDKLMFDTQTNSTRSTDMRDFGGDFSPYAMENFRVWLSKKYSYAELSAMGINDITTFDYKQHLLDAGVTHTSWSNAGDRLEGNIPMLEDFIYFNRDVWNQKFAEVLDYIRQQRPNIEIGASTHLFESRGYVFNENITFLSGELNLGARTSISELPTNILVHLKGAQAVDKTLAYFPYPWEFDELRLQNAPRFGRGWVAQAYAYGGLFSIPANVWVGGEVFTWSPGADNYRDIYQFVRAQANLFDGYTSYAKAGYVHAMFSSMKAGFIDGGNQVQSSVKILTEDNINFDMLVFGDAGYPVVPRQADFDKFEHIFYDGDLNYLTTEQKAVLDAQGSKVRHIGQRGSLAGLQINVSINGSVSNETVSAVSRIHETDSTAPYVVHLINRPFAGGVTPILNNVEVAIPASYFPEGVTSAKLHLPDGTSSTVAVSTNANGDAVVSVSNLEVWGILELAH
Put plainly: HPAEC-PAD product analysis. Type of assay: biochemical. The following applies: pH not stated for this reaction (in water); 35 °C, 24 h; 5 mg/mL stock.

For `OC[C@H]1O[C@@H](O[C@H]2[C@H]3OC[C@@H]2O[C@@H](O[C@H]2[C@@H](O)[C@@H](CO)O[C@@H](O[C@H]4[C@H]5OC[C@@H]4O[C@@H](O[C@H]4[C@@H](O)[C@@H](CO)OC(O)[C@@H]4O)[C@H]5O)[C@@H]2O)[C@H]3O)[C@H](O)[C@@H](O[C@@H]2O[C@H]3CO[C@@H]([C@@H]2O)[C@@H]3O)[C@H]1O` (stereo partly shown) [NA6, neoagarohexaose], the HPAEC-PAD product analysis entry is on record as “the products of Cm-AGA-mediated NA6 hydrolysis were relatively complex (Figure 8D)”.
